Results reported in PubChem BioAssay AID1053172 (The Scripps Research Institute Molecular Screening Center, 2014).
The source made the active and inactive calls. No rule for the calls is given here.

These compounds were tested against HIV-1 integrase / human LEDGF/p75 complex (assay: blockers of LEDGF/p75-dependent integrase activity – biochemical, TR-FRET, dose response (AID 1053172)). Conditions: TR-FRET integrase-LEDGF/p75 DNA integration.

Row | SMILES | IC50
1 | Cc1cc(=O)n2[nH]c(-c3ccsc3-n3c(C)ccc3C)cc2n1 | inactive
2 | CN(C)C1C(=O)C(C(N)=O)=C(O)C2(O)C(=O)C3=C(O)c4c(O)cccc4C(C)(O)C3C(O)C12 (stereo unspecified) | inactive
3 | CC1=NN(c2cccc(C(=O)O)c2)C(=O)/C1=C\C=C\c1ccco1 | 734 nM
4 | CC(=O)c1ccc2c(c1)C1C=CCC1C(C(=O)O)N2 (stereo unspecified) | 575 nM
5 | O=C(NCCCO)c1ccc2nc(-c3ccco3)c(-c3ccco3)nc2c1 | 2850 nM
6 | O=C(O)c1cccc(-n2cccc2/C=C/[N+](=O)[O-])c1 | 8750 nM
7 | COc1cc(C)cc(C(=O)O)c1C1=C(O)c2cccc(O)c2C(=O)C1=O | 4870 nM
8 | Oc1cccc(/C=N/NC(=S)Nc2cccnc2)c1O | inactive
9 | Oc1ccc(C[C@H]2NCCc3cc(O)c(O)cc32)cc1O | 3230 nM
10 | O=c1c(O)c(-c2ccc(O)c(O)c2)oc2cc(O)ccc12 | 378 nM
11 | COc1cc(-c2cc(=O)c3c(O)c(OC)c(OC)c(O)c3o2)ccc1O | 4960 nM
12 | CN(C(=O)COC(=O)c1cc(-c2ccco2)nc2ccccc12)C1CCS(=O)(=O)C1 (stereo unspecified) | 7420 nM
13 | O=C(O)c1cccc(-n2cccc2/C=C2/NC(=O)N(c3ccc(Cl)cc3)C2=O)c1 | 794 nM
14 | O=C(O)c1ccc(-n2cccc2/C=C2/NC(=O)N(c3ccccc3)C2=O)cc1 | 2850 nM
15 | O=C(COC(=O)c1c2c(nc3ccccc13)/C(=C\c1ccco1)CC2)NC1CCCC1 | 6440 nM
16 | O=C(N/N=C/c1cccc(F)c1)c1cc(-c2ccco2)nc2ccccc12 | 3850 nM
17 | CC1(C)OC(=O)C(=Cc2ccc(-c3ccc(Cl)c(C(=O)O)c3)o2)C(=O)O1 | 7910 nM
18 | O=C(CSc1nc2ccccc2o1)N/N=C/c1ccc(O)c(O)c1 | 1930 nM
19 | O=C(Cn1cnc([N+](=O)[O-])n1)c1ccc(O)c(O)c1 | inactive
20 | CCCNC1=C(C)C(=O)C2=C(C1=O)C(COC(N)=O)[C@]1(OC)C3NC3CN21 (stereo partly specified) | inactive
21 | Cn1c(N)c(C(=O)COC(=O)c2cc(-c3ccco3)nc3ccccc23)c(=O)n(C)c1=O | 2570 nM
22 | Cc1sc2nc(SCC(=O)c3ccc(O)c(O)c3)n(C)c(=O)c2c1C | 3630 nM
23 | O=C1C=C(O)c2c(O)cc(O)c(O)c2C1=O | 742 nM
24 | NS(=O)(=O)c1ccc(N/N=C/c2ccc(O)c(O)c2O)c([N+](=O)[O-])c1 | 1240 nM
25 | O=C(O)c1ccc(-n2c(-c3cc(-c4ccco4)[nH]n3)n[nH]c2=S)cc1 | 7320 nM
26 | CC(=O)c1ccc(NC(=O)CSc2nnc(-c3ccco3)c(-c3ccco3)n2)cc1 | 6380 nM

Row | SMILES | IC50
27 | Nc1ccc2c(c1)C/C(=C/c1ccco1)C2=O | > 36600 nM (inactive)
28 | COC1=CC(=O)C(C2CC(=O)c3c(O)cc(O)cc3O2)=CC1=O (stereo unspecified) | > 36500 nM (inactive)
29 | C=C1c2cccc(O)c2C(O)=C2C(=O)[C@]3(O)C(O)=C(C(N)=O)C(=O)[C@@H](N(C)C)[C@@H]3[C@@H](O)[C@H]12 | 2720 nM
30 | Oc1ccc(/C=N/N=C/c2ccc(O)c(O)c2)cc1O | 191 nM
31 | COCCCNC(=O)/C(C#N)=C/c1ccc(OCC(=O)O)c(OC)c1 | 5280 nM
32 | O=C(O)CC(CCc1ccccc1)OC1OC(CO)C(O)C(O)C1O (stereo unspecified) | 620 nM
33 | COc1ccc(/C=C2\C(=O)NC(=O)c3ccccc32)cc1OC | 3940 nM
34 | COc1cc(/C=C/C=C2/CC/C(=C/C=C/c3ccc(O)c(OC)c3)C2=O)ccc1O | 4930 nM
35 | Cc1cnc(C=NNC(N)=S)c2cccc(N)c12 | inactive
36 | COc1ccc(NS(=O)(=O)c2ccc3c(c2)[C@H]2C=CC[C@H]2[C@@H](c2ccc(C(=O)O)cc2)N3)cc1 | 2120 nM
37 | C/C(=N\NC(=O)c1cc(O)ccc1O)c1cccc(NC(=O)c2ccc(Cl)cc2)c1 | inactive
38 | C=C(C)C(=O)Nc1cccc(C2=NOC3(C2)C[C@@H](C(N)=O)N(C(=O)/C(C)=C/C)C3)c1 (stereo partly specified) | 3250 nM
39 | NC1=CC(=O)C(=O)c2cccnc21 | 2140 nM
40 | O=C(O)c1cc(O)c2c(c1)[C@H]([C@H]1c3cc(C(=O)O)cc(O)c3C(=O)c3c(O[C@@H]4O[C@H](CO)[C@@H](O)[C@H](O)[C@H]4O)cccc31)c1cccc(OC3O[C@H](CO)[C@@H](O)[C@H](O)[C@H]3O)c1C2=O (stereo partly specified) | 1050 nM
41 | O=C1C=C(Nc2ccccc2O)c2ccccc2C1=O | 7390 nM
42 | O=C(CCN1CCN(c2ccccc2)CC1)N/N=C/c1ccc(O)c(O)c1O | 1020 nM
43 | O=C(N/N=C/c1ccc(O)cc1O)C(=O)N/N=C/c1ccc(O)cc1O | 177 nM
44 | O=c1cc(-c2ccc(O)cc2)oc2c(O)c(O)c(O)c(O)c12 | 341 nM
45 | COc1ccc(C(=O)CSc2nnc(-c3ccco3)c(-c3ccco3)n2)cc1 | 6450 nM
46 | O=c1cc(-c2ccc(O)c(O)c2)oc2cc(O)c(C3OC(CO)C(O)C(O)C3O)c(O)c12 (stereo unspecified) | 1550 nM
47 | N#Cc1c(NC(=O)CSc2ncnc3sccc23)oc(-c2ccco2)c1-c1ccco1 | inactive
48 | S=C(Nc1ccc(N2CCOCC2)cc1)Nc1ccc2nc(-c3ccco3)c(-c3ccco3)nc2c1 | > 36500 nM (inactive)
49 | O=C(Cc1cnn(-c2ccccc2)c1)c1ccc(O)c(O)c1O | > 36500 nM (inactive)
50 | O=C(O)c1ccc2nc(-c3ccco3)c(-c3ccco3)nc2c1 | 1920 nM
51 | Nc1nc(-c2ccco2)c(-c2ccco2)s1 | > 36500 nM (inactive)
